According to US20260042731A1, “(2,4-DICHLOROPHENOXY)ACETIC ACID ANALOGS” (CORTEVA AGRISCIENCE LLC, priority 2022, published 2026):
Read-outs that look alike come from different tables or passages of the source.

What was measured:
[1] = Volatility of compounds measured by thermogravimetric analysis (TGA); type: physicochemical
[2] = tested on: Chenopodium album (CHEAL), common lambsquarters; experiment: Postemergence herbicide evaluation, growth of Chenopodium album (CHEAL); type: in vivo; conditions: Chenopodium album, post-emergence, percent reduction in plant size vs untreated control, read-out: Ave. CHEAL; for pest or weed control at 280 g/ha: 280 g ae/ha; for pest or weed control at 560 g/ha: 560 g ae/ha
Velvetleaf (ABUTH) = experiment: Greenhouse post-emergence mixture trials, percent visual control; type: in vivo; conditions: ABUTH, 21 DAA; for pest or weed control at 560 g/ha / pest or weed control at 1120 g/ha: Abutilon theophrasti, post-emergence, 504 h; for pest or weed control at 560 g/ha: compound 560 g ae/ha; for pest or weed control at 1120 g/ha: compound 1120 g ae/ha, read-out: % Control
Corn (ZEAMX) = experiment: as above; type: in vivo; conditions: ZEAMX, 21 DAA, no mixing partner; for % Control / plant injury at 560 g/ha: compound 560 g ae/ha
[3] = tested on: glyphosate resistant Conyza canadensis (L.) (ERICA), horseweed; experiment: Postemergence herbicide evaluation, growth of Conyza canadensis (ERICA); type: in vivo; conditions: Erigeron canadensis, post-emergence, percent reduction in plant size vs untreated control, read-out: Ave. ERICA; for pest or weed control at 280 g/ha: 280 g ae/ha; for pest or weed control at 560 g/ha: 560 g ae/ha
[4] = tested on: Ambrosia artemisiifolia (AMBEL), common ragweed; experiment: Postemergence herbicide evaluation, growth of Ambrosia artemisiifolia (AMBEL); type: in vivo; conditions: Ambrosia artemisiifolia, post-emergence, percent reduction in plant size vs untreated control, read-out: AVE. AMBEL; for pest or weed control at 280 g/ha: 280 g ae/ha; for pest or weed control at 560 g/ha: 560 g ae/ha
[5] = tested on: Abutilon theophrasti (ABUTH), velvetleaf; experiment: Postemergence herbicide evaluation, growth of Abutilon theophrasti (ABUTH); type: in vivo; conditions: Abutilon theophrasti, post-emergence, percent reduction in plant size vs untreated control, read-out: AVE. ABUTH; for pest or weed control at 280 g/ha: 280 g ae/ha; for pest or weed control at 560 g/ha: 560 g ae/ha
[6] = tested on: weeds ABUTH, AMATA, AMBEL, CHEAL, ERICA; experiment: Postemergence herbicide evaluation, overall average % weed control across ABUTH, AMATA, AMBEL, CHEAL and ERICA; type: in vivo; conditions: post-emergence, average over five weeds, read-out: Overall Ave % Weed Control; for pest or weed control at 280 g/ha: 280 g ae/ha; for pest or weed control at 560 g/ha: 560 g ae/ha
[7] = tested on: Amaranthus rudis (AMATA), tall water hemp; experiment: Postemergence herbicide evaluation, growth of Amaranthus rudis (AMATA); type: in vivo; conditions: Amaranthus tuberculatus, post-emergence, percent reduction in plant size vs untreated control, read-out: Ave. AMATA; for pest or weed control at 280 g/ha: 280 g ae/ha; for pest or weed control at 560 g/ha: 560 g ae/ha
[8] = tested on: Common Lambsquarters (CHEAL); experiment: Greenhouse post-emergence mixture trials, percent visual control; type: in vivo; conditions: CHEAL, 21 DAA; for pest or weed control at 560 g/ha / pest or weed control at 1120 g/ha: Chenopodium album, post-emergence, 504 h, no mixing partner; for pest or weed control at 1120 g/ha: read-out: % Control
[9] = no mixing partner, Trial Bridge 3
[10] = Trial Bridge 1, mixing partner none
[11] = Trial Bridge 2, no mixing partner
[12] = Trial Bridge 1, compound 560 g ae/ha + Arylex 5 g ai or ae/ha
[13] = Trial Bridge 1, compound 560 g ae/ha + Mesotrione 150 g ai or ae/ha
[14] = Trial Bridge 1, compound 1120 g ae/ha + Arylex 5 g ai or ae/ha
[15] = Trial Bridge 1, compound 1120 g ae/ha + Glufosinate 600 g ai or ae/ha
[16] = Trial Bridge 1, compound 1120 g ae/ha + Mesotrione 150 g ai or ae/ha
[17] = Trial Bridge 2, compound 560 g ae/ha + Saflufenacil 25 g ai or ae/ha
[18] = Trial Bridge 2, compound 560 g ae/ha + Saflufenacil 75 g ai or ae/ha
[19] = Trial Bridge 2, compound 560 g ae/ha + Trifludimoxazin 12.5 g ai or ae/ha
[20] = Trial Bridge 2, compound 560 g ae/ha + Trifludimoxazin 50 g ai or ae/ha
[21] = Trial Bridge 2, compound 1120 g ae/ha + Saflufenacil 25 g ai or ae/ha
[22] = Trial Bridge 2, compound 1120 g ae/ha + Saflufenacil 75 g ai or ae/ha
[23] = Trial Bridge 2, compound 1120 g ae/ha + Trifludimoxazin 12.5 g ai or ae/ha
[24] = Trial Bridge 2, compound 1120 g ae/ha + Trifludimoxazin 50 g ai or ae/ha

Structure (SMILES): O=C(COc1ccc(Cl)cc1Cl)Nc1cccnc1 [Compound D27]
- TGA Data (rate of weight loss, volatility) [1]: 0.01 µg/min
- pest or weed control at 280 g/ha ([2]; 168 h, 7 DAA): 82.5%
- pest or weed control at 560 g/ha ([2]; 168 h, 7 DAA): 80%
- pest or weed control at 280 g/ha ([2]; 336 h, 14 DAA): 85%
- pest or weed control at 560 g/ha ([2]; 336 h, 14 DAA): 97.5%
- pest or weed control at 280 g/ha ([2]; 504 h, 21 DAA): 94%
- pest or weed control at 560 g/ha ([2]; 504 h, 21 DAA): 97.5%
- % Control (Velvetleaf (ABUTH); compound 560 g ae/ha + Sulfentrazone 347 g ai/ha, Trial Bridge 3): 100%
- % Control (Velvetleaf (ABUTH); compound 1120 g ae/ha + Sulfentrazone 130 g ai/ha, Trial Bridge 3): 100%
- % Control (Velvetleaf (ABUTH); compound 1120 g ae/ha + Sulfentrazone 347 g ai/ha, Trial Bridge 3): 100%
- pest or weed control at 560 g/ha (Velvetleaf (ABUTH); [9]): 100%
- pest or weed control at 1120 g/ha (Velvetleaf (ABUTH); [9]): 99%
- pest or weed control at 560 g/ha (Velvetleaf (ABUTH); [10]): 100%
- pest or weed control at 1120 g/ha (Velvetleaf (ABUTH); [10]): 100%
- pest or weed control at 560 g/ha (Velvetleaf (ABUTH); [11]): 100%
- pest or weed control at 1120 g/ha (Velvetleaf (ABUTH); [11]): 100%
- % Control (Velvetleaf (ABUTH); [12]): 100%
- % Control (Velvetleaf (ABUTH); Trial Bridge 1, compound 560 g ae/ha + Glufosinate 600 g ai or ae/ha): 100%
- % Control (Velvetleaf (ABUTH); Trial Bridge 1, compound 560 g ae/ha + Glyphosate 1120 g ai or ae/ha): 100%
- % Control (Velvetleaf (ABUTH); [13]): 100%
- % Control (Velvetleaf (ABUTH); Trial Bridge 1, compound 560 g ae/ha + diclosulam 35 g ai or ae/ha): 100%
- % Control (Velvetleaf (ABUTH); [14]): 100%
- % Control (Velvetleaf (ABUTH); [15]): 100%
- % Control (Velvetleaf (ABUTH); Trial Bridge 1, compound 1120 g ae/ha + Glyphosate 1120 g ai or ae/ha): 100%
- % Control (Velvetleaf (ABUTH); [16]): 100%
- % Control (Velvetleaf (ABUTH); Trial Bridge 1, compound 1120 g ae/ha + diclosulam 35 g ai or ae/ha): 100%
- % Control (Velvetleaf (ABUTH); [17]): 100%
- % Control (Velvetleaf (ABUTH); [18]): 100%
- % Control (Velvetleaf (ABUTH); [19]): 100%
- % Control (Velvetleaf (ABUTH); [20]): 100%
- % Control (Velvetleaf (ABUTH); [21]): 100%
- % Control (Velvetleaf (ABUTH); [22]): 100%
- % Control (Velvetleaf (ABUTH); [23]): 100%
- % Control (Velvetleaf (ABUTH); [24]): 100%
- % Control (Corn (ZEAMX); Trial Bridge 1): 5%
- % Control (Corn (ZEAMX); Trial Bridge 3): 5%
- plant injury at 560 g/ha (Corn (ZEAMX); Zea mays, post-emergence, 504 h, Trial Bridge 1): 5%
- plant injury at 560 g/ha (Corn (ZEAMX); Zea mays, post-emergence, 504 h, Trial Bridge 3): 5%
- plant injury at 1120 g/ha (Corn (ZEAMX); Zea mays, post-emergence, 504 h, compound 1120 g ae/ha, Trial Bridge 3): 5%
- pest or weed control at 280 g/ha ([3]; 168 h, 7 DAA): 67.5%
- pest or weed control at 560 g/ha ([3]; 168 h, 7 DAA): 85%
- pest or weed control at 280 g/ha ([3]; 336 h, 14 DAA): 100%
- pest or weed control at 560 g/ha ([3]; 336 h, 14 DAA): 100%
- pest or weed control at 280 g/ha ([3]; 504 h, 21 DAA): 98.5%
- pest or weed control at 560 g/ha ([3]; 504 h, 21 DAA): 99%
- pest or weed control at 280 g/ha ([4]; 168 h, 7 DAA): 85%
- pest or weed control at 560 g/ha ([4]; 168 h, 7 DAA): 85%
- pest or weed control at 280 g/ha ([4]; 336 h, 14 DAA): 77.5%
- pest or weed control at 560 g/ha ([4]; 336 h, 14 DAA): 99%
- pest or weed control at 280 g/ha ([4]; 504 h, 21 DAA): 100%
- pest or weed control at 560 g/ha ([4]; 504 h, 21 DAA): 100%
- pest or weed control at 280 g/ha ([5]; 168 h, 7 DAA): 75%
- pest or weed control at 560 g/ha ([5]; 168 h, 7 DAA): 80%
- pest or weed control at 280 g/ha ([5]; 336 h, 14 DAA): 81.5%
- pest or weed control at 560 g/ha ([5]; 336 h, 14 DAA): 98.5%
- pest or weed control at 280 g/ha ([5]; 504 h, 21 DAA): 97%
- pest or weed control at 560 g/ha ([5]; 504 h, 21 DAA): 100%
- pest or weed control at 280 g/ha ([6]; 168 h, 7 DAA): 78%
- pest or weed control at 560 g/ha ([6]; 168 h, 7 DAA): 84.4%
- pest or weed control at 280 g/ha ([6]; 336 h, 14 DAA): 87.3%
- pest or weed control at 560 g/ha ([6]; 336 h, 14 DAA): 97%
- pest or weed control at 280 g/ha ([6]; 504 h, 21 DAA): 94.9%
- pest or weed control at 560 g/ha ([6]; 504 h, 21 DAA): 99.3%
- pest or weed control at 280 g/ha ([7]; 168 h, 7 DAA): 80%
- pest or weed control at 560 g/ha ([7]; 168 h, 7 DAA): 92%
- pest or weed control at 280 g/ha ([7]; 336 h, 14 DAA): 92.5%
- pest or weed control at 560 g/ha ([7]; 336 h, 14 DAA): 90%
- pest or weed control at 280 g/ha ([7]; 504 h, 21 DAA): 85%
- pest or weed control at 560 g/ha ([7]; 504 h, 21 DAA): 100%
- % Control [8, 17]: 100%
- % Control [8, 18]: 100%
- % Control [8, 19]: 100%
- % Control [8, 20]: 100%
- % Control [8, 21]: 100%
- % Control [8, 22]: 100%
- % Control [8, 23]: 100%
- % Control [8, 24]: 100%
- % Control ([8]; Trial Bridge 3, compound 560 g ae/ha + Sulfentrazone 130 g ai/ha): 100%
- % Control ([8]; Trial Bridge 3, compound 560 g ae/ha + Sulfentrazone 347 g ai/ha): 100%
- % Control ([8]; Trial Bridge 3, compound 1120 g ae/ha + Sulfentrazone 130 g ai/ha): 100%
- % Control ([8]; Trial Bridge 3, compound 1120 g ae/ha + Sulfentrazone 347 g ai/ha): 100%
- pest or weed control at 560 g/ha ([8]; Trial Bridge 2, compound 560 g ae/ha): 95%
- pest or weed control at 1120 g/ha ([8]; Trial Bridge 2, compound 1120 g ae/ha): 98%
- pest or weed control at 560 g/ha ([8]; Trial Bridge 3, compound 560 g ae/ha): 95%
- pest or weed control at 1120 g/ha ([8]; Trial Bridge 3, compound 1120 g ae/ha): 100%
- pest or weed control at 560 g/ha ([8]; Trial Bridge 1, compound 560 g ae/ha): 98%
- pest or weed control at 1120 g/ha ([8]; Trial Bridge 1, compound 1120 g ae/ha): 100%
- % Control [8, 12]: 100%
- % Control [8, 13]: 100%
- % Control [8, 14]: 100%
- % Control [8, 15]: 100%
- % Control [8, 16]: 100%
